Results from patent US7645736B2, “Integrin inhibitors for the treatment of eye diseases” (Merck Patent GmbH, priority 2004, dated 2010).

System: bFGF-stimulated corneal angiogenesis
Assay: rabbit corneal micropocket model, single intravitreal injection
Assay type: in vivo
Details: single (day 0) intravitreal, 100 μL, drug = 2 mg/eye; for inhibition [%] of neovascularisation area: vs saline control
Description: (1996). In this model angiogenesis is stimulated by implantation of Hydron pellets containing an angiogenesis stimulating cytokine like, for example, fibroblast growth factor (FGF) or vascular endothelial growth factor (VEGF) into the cornea. After implantation the active compound to be tested is administered by paralimbal intravitreal injection. Effect on neovascularisation is measured after predetermined time intervals by visual examination using a microscope, photographing and computer-assisted quantification of photographs.
The effect of intravitreal application of an αvβ3 and/or αvβ5 inhibitor was examined in rabbit corneal micropocket model as described by Shaffer R. W. (see above). As an example for an αvβ3 and/or αvβ5 inhibitor 2-(2,2-dimethylpropyloxycarboxamido)-3{3,4-dihydro-2-[N-(2-imidazoly)-carbamoylethyl]-2H-1,4-benzoxazin-3-on-6-yl}propionic acid was used in the experiment. For induction of angiogenesis Hydron pellets containing basic fibroblast growth factor (bFGF) were used. Preparation of bFGF containing implants was performed by casting Hydron [poly(hydroxyethyl)methacrylate] in specially prepared Teflon pegs that have a 2.5 mm core drilled into their surfaces. Approximately 12 μl of casting material was placed into each peg and polymerized overnight in a sterile hood, then sterilized by ultraviolet irradiation.
The experiment consisted of 10 animals; in each eye of the animals one individual pellet was implanted into a surgically created “pocket” in the mid stroma of the rabbit cornea. The surgical procedure was done under sterile technique using a Moeller-Wedel Microflex operating microscope (Haag-Streit Company, Germany) equipped with a beamsplitter and camera for photographically recording individual comeas. A 69 Beaver blade was used to create a 3 mm by 5 mm “pocket” to a depth of half the comeal thickness. The stroma was dissected peripherally using an spatula and the pellet implanted with its peripheral margin 2 mm from limbus. […] For comparison the same procedure was performed in the other 5 animals using saline only. Following implantation the eyes Were photographed and the area of neovascularisation measured after predetermined intervals.

## CC(C)(C)COC(=O)NC(Cc1ccc2c(c1)NC(=O)C(CCC(=O)Nc1ncc[nH]1)O2)C(=O)O (centres unmarked) [Drug, 2-(2,2-dimethylpropyloxycarboxamido)-3-{3,4-dihydro-2-[N-(2-imidazolyl)-carbamoylethyl]-2H-1,4-benzoxazin-3-on-6-yl}propionic acid]
5 days post implantation
  mean area [mm^2] of neovascularisation: 1.71 mm^2
  inhibition [%] of neovascularisation area: 56.3%
7 days post implantation
  mean area [mm^2] of neovascularisation: 4.65 mm^2
  inhibition [%] of neovascularisation area: 13.4%
10 days post implantation
  mean area [mm^2] of neovascularisation: 5.10 mm^2
  inhibition [%] of neovascularisation area: 45.8%
14 days post implantation
  mean area [mm^2] of neovascularisation: 9.94 mm^2
  inhibition [%] of neovascularisation area: 40.0%
